{
  "source": "patent US20150173371A1",
  "about": "(Dow AgroSciences LLC, priority 2013, published 2015)",
  "key": {"[1]": {"tested_on": "Conyza bonariensis (hairy fleabane, ERIBO)", "conditions": "field trial", "experimental": "(§1) Field trials were conducted under normal field conditions in multiple states in the United States, including but not limited to Alabama, Mississipi, South Carolina and Tennessee; and in Brazil, including but not limited to the states of Goias, Mato Grosso, Parana, Rio Grande do Sul, and Sao Paulo. Trials were established as RCB (randomized complete block) design, with 3-4 replicates per treatment, and plot sizes varying from 2-3 meters (m) wide by 4-8 m long. Treatments were applied with small plot backpack sprayers, using pressurized carbon dioxide (CO2) as propellant. Pressure varied from 22-40 PSI, with spray tips typically of a Flat Fan type applying water diluent at 150 L/ha. Boom sizes varied from 2-3 m in width. Treatments were applied to soybean, cotton or fallow crop land. Weed sizes varied, but all treatments were applied as post-emergence treatments to weeds from 2 leaf to 2 tiller growth stages varying from 2-15 inches (in) in height. No additional adjuvant was mixed with the treatments applied in the field\n(§2) The treated plots and control plots were rated blind at various intervals after application.\n(§3) Colby's equation was used to determine the herbicidal effects expected from the mixtures (Colby, S. R. Calculation of the synergistic and antagonistic response of herbicide combinations. Weeds 1967 15, 20-22). A t-test (alpha=0.05) between Colby predictions and observed combinations was used to test for significant differences indicating synergy or antagonism.\n(§4) The following equation was used to calculate the expected activity of mixtures containing two active ingredients, A and B:\n(§5) Expected=A+B−(A×B/100) • A=observed efficacy of active ingredient A at the same concentration as used in the mixture; • B=observed efficacy of active ingredient B at the same concentration as used in the mixture."}, "[2]": {"tested_on": "Conyza canadensis (horseweed, ERICA)", "conditions": "field trial", "experimental": "as §1, §2, §3, §4, §5"}, "[3]": {"tested_on": "Commelina benghalensis (hairy wandering Jew, COMBE)", "assay": "Field trial, % visual weed control", "format": "in vivo", "conditions": "800 g ae/ha alone", "source_text": "(§6) Boom sizes varied from 2-3 m in width."}, "[4]": {"tested_on": "Ipomoea species (morningglory, IPOSS)", "assay": "Field trial, % visual weed control", "format": "in vivo", "conditions": "8DAA, 840 g ae/ha alone", "source_text": "as §6"}, "[5]": {"tested_on": "Euphorbia hirta (garden spurge, EPHHI)", "assay": "Field trial, % visual weed control", "format": "in vivo", "source_text": "as §6"}, "[6]": {"tested_on": "Sesbania exaltata (hemp sesbania, SEBEX)", "assay": "Field trial, % visual weed control", "format": "in vivo", "conditions": "8DAA, 840 g ae/ha alone", "source_text": "as §6"}, "[7]": {"tested_on": "Amaranthus palmeri (Palmer pigweed, AMAPA)", "assay": "Field trial, % visual weed control", "format": "in vivo", "source_text": "as §6"}, "[8]": {"tested_on": "Spermacoce latifolia (broadleaf buttonweed, BOILF)", "assay": "Field trial, % visual weed control", "format": "in vivo", "source_text": "as §6"}, "[9]": {"tested_on": "Brachiaria decumbens (Surinam grass, BRADC)", "assay": "Field trial, % visual weed control", "format": "in vivo", "conditions": "12DAA, 720 g ae/ha alone", "source_text": "as §6"}, "[10]": {"tested_on": "Jacquemontia tamnifolia (smallflower morningglory, IAQTA)", "assay": "Field trial, % visual weed control", "format": "in vivo", "conditions": "7DAA, 1120 g ae/ha alone", "source_text": "as §6"}, "[11]": {"tested_on": "Tridax procumbens L (tridax daisy, TRQPR)", "assay": "Field trial, % visual weed control", "format": "in vivo", "conditions": "16DAA, 800 g ae/ha alone", "source_text": "as §6"}, "[12]": {"tested_on": "Raphanus raphanistrim (wild radish, RAPRA)", "assay": "Field trial, % visual weed control", "format": "in vivo", "conditions": "6DAA, 800 g ae/ha alone", "source_text": "as §6"}, "[13]": {"tested_on": "Ipomoea grandifolia (Corda-de-viola, IAQGR)", "assay": "Field trial, % visual weed control", "format": "in vivo", "conditions": "17DAA, 800 g ae/ha alone", "source_text": "as §6"}, "[14]": {"tested_on": "Euphorbia heterophylla (wild poinsettia, EPHHL)", "assay": "Field trial, % visual weed control", "format": "in vivo", "conditions": "28DAA, 615 g ae/ha alone", "source_text": "as §6"}, "[15]": {"tested_on": "Glycine max (soybean, glyphosate tolerant, GLXMA)", "assay": "Field trial, % visual weed control", "format": "in vivo", "source_text": "as §6"}, "[16]": {"tested_on": "Elymus repens (quackgrass, AGRRE)", "assay": "Greenhouse trial, % visual weed control", "format": "in vivo", "conditions": "14DAA, 210 g ae/ha alone", "experimental": "(§7) Greenhouse trials were conducted under controlled environment greenhouse conditions, with plants grown in pots with Metromix soil and bottom watered. Treatments were applied with 3 replicates per treatment, using a track sprayer with 2 flat fan nozzles at 40 pounds per square inch (PSI). Water was used as the diluent at 140 liters per hectare (L/ha), with weeds being 2-4 leaf stage and approximately 3 inches in height at treatment."}, "[17]": {"tested_on": "Chenopodium album (common lambsquarter, CHEAL)", "assay": "Greenhouse trial, % visual weed control", "format": "in vivo", "conditions": "14DAA", "experimental": "as §7"}, "[18]": {"tested_on": "Ambrosia artemisiifolia (common ragweed, AMBEL)", "assay": "Greenhouse trial, % visual weed control", "format": "in vivo", "conditions": "14DAA, 105 g ae/ha alone", "experimental": "as §7"}, "[19]": {"tested_on": "Abutilon theophrasti (velvetleaf, ABUTH)", "assay": "Greenhouse trial, % visual weed control", "format": "in vivo", "conditions": "14DAA", "experimental": "as §7"}},
  "note": "Values joined by “and” are separate entries in the source; they are usually repeats but may differ in a detail not shown here. Identical values can stand only once. Like-named read-outs stand apart in the source and are kept apart here.",
  "data": [
    {"smiles": "CNC.O=C(O)CNCP(=O)(O)O", "note": "[Glyphosate-DMA, dimethylamine salt of N-(phosphonomethyl)glycine]", "values": [
      {"measurement": "Mean % Weed Control", "setting": "[1]; 6DAA, 360 g ae/ha alone", "result": 6.3, "unit": "%"},
      {"measurement": "Mean % Weed Control", "setting": "[1]; 6DAA, 720 g ae/ha alone", "result": 5.0, "unit": "%"},
      {"measurement": "Mean % Weed Control", "setting": "[1]; 6DAA, 1080 g ae/ha alone", "result": 12.5, "unit": "%"},
      {"measurement": "Mean % Weed Control", "setting": "[1]; 7DAA, 800 g ae/ha alone", "result": "13.8% and 11.3%"},
      {"measurement": "Mean % Weed Control", "setting": "[1]; 10DAA, 800 g ae/ha alone", "result": 41.3, "unit": "%"},
      {"measurement": "Mean % Weed Control", "setting": "[1]; 20DAA, 800 g ae/ha alone", "result": 35.0, "unit": "%"},
      {"measurement": "Mean % Weed Control", "setting": "[1]; 21DAA, 800 g ae/ha alone", "result": 36.3, "unit": "%"},
      {"measurement": "Mean % Weed Control", "setting": "[1]; 28DAA, 800 g ae/ha alone", "result": "53.8% and 32.5% and 33.8%"},
      {"measurement": "Mean % Weed Control", "setting": "[1]; 31DAA, 800 g ae/ha alone", "result": 38.8, "unit": "%"},
      {"measurement": "Mean % Weed Control", "setting": "[1]; 36DAA, 800 g ae/ha alone", "result": "75.0% and 55.0%"},
      {"measurement": "Mean % Weed Control", "setting": "[2]; 10DAA, 960 g ae/ha alone", "result": 10, "unit": "%"},
      {"measurement": "Mean % Weed Control", "setting": "[2]; 14DAA, 840 g ae/ha alone", "result": 67.5, "unit": "%"},
      {"measurement": "Mean % Weed Control", "setting": "[2]; 15DAA, 960 g ae/ha alone", "result": 15, "unit": "%"},
      {"measurement": "Mean % Weed Control", "setting": "[2]; 21DAA, 840 g ae/ha alone", "result": 68.8, "unit": "%"},
      {"measurement": "Mean % Weed Control", "setting": "[2]; 28DAA, 840 g ae/ha alone", "result": 78.3, "unit": "%"},
      {"measurement": "Mean % Weed Control", "setting": "[2]; 31DAA, 960 g ae/ha alone", "result": 51.7, "unit": "%"},
      {"measurement": "Mean % Weed Control", "setting": "[3]; 12DAA", "result": 50.0, "unit": "%"},
      {"measurement": "Mean % Weed Control", "setting": "[3]; 15DAA", "result": "62.5% and 43.8%"},
      {"measurement": "Mean % Weed Control", "setting": "[3]; 18DAA", "result": 51.3, "unit": "%"},
      {"measurement": "Mean % Weed Control", "setting": "[3]; 27DAA", "result": 70.0, "unit": "%"},
      {"measurement": "Mean % Weed Control", "setting": "[3]; 28DAA", "result": 63.8, "unit": "%"},
      {"measurement": "Mean % Weed Control", "setting": "[3]; 35DAA", "result": 67.5, "unit": "%"},
      {"measurement": "Mean % Weed Control", "setting": "[4]", "result": 48.8, "unit": "%"},
      {"measurement": "Mean % Weed Control", "setting": "[5]; 7DAA, 800 g ae/ha alone", "result": 43.8, "unit": "%"},
      {"measurement": "Mean % Weed Control", "setting": "[5]; 18DAA, 800 g ae/ha alone", "result": 50.0, "unit": "%"},
      {"measurement": "Mean % Weed Control", "setting": "[5]; 21DAA, 800 g ae/ha alone", "result": 41.3, "unit": "%"},
      {"measurement": "Mean % Weed Control", "setting": "[5]; 24DAA, 480 g ae/ha alone", "result": 50.0, "unit": "%"},
      {"measurement": "Mean % Weed Control", "setting": "[6]", "result": 53.8, "unit": "%"},
      {"measurement": "Mean % Weed Control", "setting": "[7]; 7DAA, 840 g ae/ha alone", "result": 52.5, "unit": "%"},
      {"measurement": "Mean % Weed Control", "setting": "[7]; 13DAA, 1120 g ae/ha alone", "result": 60.0, "unit": "%"},
      {"measurement": "Mean % Weed Control", "setting": "[7]; 21DAA, 1120 g ae/ha alone", "result": 61.3, "unit": "%"},
      {"measurement": "Mean % Weed Control", "setting": "[8]; 18DAA, 800 g ae/ha alone", "result": 47.5, "unit": "%"},
      {"measurement": "Mean % Weed Control", "setting": "[8]; 21DAA, 800 g ae/ha alone", "result": 79.5, "unit": "%"},
      {"measurement": "Mean % Weed Control", "setting": "[8]; 24DAA, 480 g ae/ha alone", "result": 51.7, "unit": "%"},
      {"measurement": "Mean % Weed Control", "setting": "[8]; 27DAA, 800 g ae/ha alone", "result": 72.5, "unit": "%"},
      {"measurement": "Mean % Weed Control", "setting": "[8]; 28DAA, 800 g ae/ha alone", "result": 77.5, "unit": "%"},
      {"measurement": "Mean % Weed Control", "setting": "[9]", "result": 73.8, "unit": "%"},
      {"measurement": "Mean % Weed Control", "setting": "[10]", "result": 86.3, "unit": "%"},
      {"measurement": "Mean % Weed Control", "setting": "[11]", "result": 47.5, "unit": "%"},
      {"measurement": "Mean % Weed Control", "setting": "[12]", "result": 85.0, "unit": "%"},
      {"measurement": "Mean % Weed Control", "setting": "[13]", "result": 87.0, "unit": "%"},
      {"measurement": "Mean % Weed Control", "setting": "[14]", "result": 68.3, "unit": "%"},
      {"measurement": "Mean % Weed Control", "setting": "[15]; 7DAA, 960 g ae/ha alone", "result": 0.0, "unit": "%"},
      {"measurement": "Mean % Weed Control", "setting": "[15]; 16DAA, 480 g ae/ha alone", "result": 0.0, "unit": "%"},
      {"measurement": "Mean % Weed Control", "setting": "[15]; 28DAA, 480 g ae/ha alone", "result": 0.0, "unit": "%"},
      {"measurement": "Mean % Weed Control", "setting": "[15]; 28DAA, 960 g ae/ha alone", "result": 0.0, "unit": "%"},
      {"measurement": "Mean % Weed Control", "setting": "[15]; 30DAA, 480 g ae/ha alone", "result": 0.0, "unit": "%"},
      {"measurement": "Mean % Weed Control", "setting": "[16]", "result": 12.5, "unit": "%"},
      {"measurement": "Mean % Weed Control", "setting": "[17]; 105 g ae/ha alone", "result": 0.0, "unit": "%"},
      {"measurement": "Mean % Weed Control", "setting": "[17]; 210 g ae/ha alone", "result": 21.7, "unit": "%"},
      {"measurement": "Mean % Weed Control", "setting": "[17]; 420 g ae/ha alone", "result": 70.0, "unit": "%"},
      {"measurement": "Mean % Weed Control", "setting": "[18]", "result": 26.7, "unit": "%"},
      {"measurement": "Mean % Weed Control", "setting": "[19]; 105 g ae/ha alone", "result": 0.0, "unit": "%"},
      {"measurement": "Mean % Weed Control", "setting": "[19]; 210 g ae/ha alone", "result": 3.3, "unit": "%"},
      {"measurement": "Mean % Weed Control", "setting": "[19]; 420 g ae/ha alone", "result": 63.3, "unit": "%"},
      {"measurement": "Mean % Weed Control", "setting": "[19]; 840 g ae/ha alone", "result": 85.0, "unit": "%"}
    ]}
  ]
}
